# Test results reported in patent US20220153746A1, “NITROGEN OXIDE-DONATING PDE-5 AND/OR PDE-6 INHIBITOR COMPOUNDS, AND USES THEREOF” (ILDONG PHARMACEUTICAL CO., LTD., priority 2020, published 2022).
# Like-named read-outs stand apart in the source and are kept apart here.
# Experiment: TD Phase (Groups 1 and 3): plasma and ocular tissue concentrations and pharmacokinetics of Compound 18 and its metabolite Compound 4 after once daily ocular instillation of Compound 18 nanosuspension for 7 days
# Format: in vivo, New Zealand white rabbits
# Details: for concentration at 2 h / concentration at 4 h / concentration at 8 h / concentration at 0.5 h / concentration at 1 h / Cmax / Tmax / AUC(0-t) / half-life: male, New Zealand white, rabbit; for concentration at 2 h / concentration at 4 h / concentration at 8 h / concentration at 0.5 h / concentration at 1 h: TD Phase; for concentration at 2 h: Group 3, 2 h; for concentration at 4 h: Group 3, 4 h; for concentration at 8 h: Group 3, 8 h; for concentration at 0.5 h: Group 3, 0.5 h; for concentration at 1 h: Group 1, 1 h; for Cmax / Tmax / AUC(0-t) / half-life: topical or ocular; for AUC(0-t): read-out: AUC0-8
# Description: This example illustrates the procedures and results for the levels of Compound 18 and its metabolite Compound 4 in plasma and ocular tissues of normotensive rabbits following ocular instillation of Compound 18 once daily for 7 consecutive days.
# Twenty five (25) male New Zealand white rabbits were divided into 5 groups of varying amounts of animals per group.
# The Test article, Compound 18 was formulated as a 2% nanosuspension in DI water containing 0.2% PS80 (polyoxyethylenesorbitan, monooleate (Tween 80)) and 0.4% HPMC (hydroxypropylmethylcellulose) at pH 6.77. Referred to herein as “Compound 18 nanosuspension.”
# The study consisted of three groups (Groups 1-3) of 19 male rabbits (NZW) that underwent once daily morning ocular installation (1 eyedrop) for 7 consecutive days (Day 0-6). Groups 4-5 each consisted of 3 male rabbits (NZW) that were not dosed.
# Blood samples (1 mL) were collected from the jugular vein at the intervals set out below for each group. The samples were then inverted several times following collection and held on wet ice until centrifuged. Samples were centrifuged within 60 minutes of collection under refrigeration (set at 5° C. for 10 minutes at 2000 g.
# Group 1 (Pilot Study, terminal blood collection): blood was collected from 3 animals at 1 hour post day 7 dose of Compound 18 nanosuspension.
# Group 3 (TD Phase, terminal blood collection): blood was collected from 3 animals at 0.5 hour, 3 animals at 2 hours, 3 animals at 4 hours, and 3 animals at 8 hours post day 7 dose of Compound 18 nanosuspension.
# Group 1 (Pilot Study): 3 animals were terminated at 1 hour post Day 7 dose of Compound 18 nanosuspension. Following blood collection and termination, ocular tissues (aqueous humor, vitreous humor, cornea, iris/ciliary body, lens, optic nerve, retina, sclera/choroid, and trabecular meshwork) were collected from each animal and the tissue weights were recorded. Note: sclera and choroid were collected together. Iris and ciliary body were collected together.
# Group 3 (TD Phase): 3 animals were terminated at 0.5 hour, 3 animals at 2 hours, 3 animals at 4 hours, and 3 animals at 8 hours post Day 7 dose of Compound 18 nanosuspension. Following blood collection and termination, ocular tissues (aqueous humor, vitreous humor, cornea, iris/ciliary body, lens, optic nerve, retina, sclera/choroid, and trabecular meshwork) were collected from each animal and the tissue weights were recorded. Note: sclera and choroid were collected together. Iris and ciliary body were collected together.
# Plasma and tissue samples from treated animals (Groups 1-3) were analyzed for Compound 18 and its metabolite Compound 4 concentrations by LC-MS/MS.
# Pharmacokinetic analysis was conducted using WinNonlin Version 6.2.1 (Pharsight, Mountain View, Calif.), operating as a validated software system. Noncompartmental analysis was conducted using the extravascular administration model for ocular instillation dosing.
# The peak plasma and ocular tissue concentration, time to achieve peak plasma and ocular tissue concentration, half-life, and area under the plasma and ocular tissue concentration-time curve (Cmax, Tmax, T1/2, and AUC) were calculated from the TD phase combined with the pilot study mean animal plasma and ocular tissue concentrations for each sampling time/dose group for Compound 18 and its metabolite Compound 4.
# BA Assay: Quantitation Range 0.05 to 100 ng/mL for Compound 18, 0.15 to 100 ng/mL for Compound 4.
# 3. Pipet 50 μL of each type of pre-spiked ocular tissue samples (AH/VH) for QC samples, 50 μL of incurred aqueous humor, and vitreous humor sample (if applicable) into a 96 well plate.
# Ocular Tissues Homogenate Preparation: Incurred rabbit ocular tissues were weighed in Genogrinder tubes (plastic tubes with small beads) at the time of removal from the animal and stored frozen (<−70° C.) until analysis. The rabbit incurred ocular tissues were thawed on wet ice. […]
# [1] = iris/ciliary body, topical, 2 mg/day, Mean, read-out: Final Compound 18 Iris/Ciliary Body Conc.
# [2] = lens homogenate, topical, 2 mg/day, individual animals, homogenate dilution factor 5, read-out: Compound 18 Lens Homogenate Conc.
# [3] = lens, topical, 2 mg/day, Mean, read-out: Final Compound 18 Lens Conc.
# [4] = lens, topical, 2 mg/day, individual animals, BQL set to 0, read-out: Final Compound 18 Lens Conc.
# [5] = optic nerve, other: ocular instillation (eye drop), 0.798 mg/kg/day, Mean, read-out: Final Compound 18 Optic Nerve Conc.
# [6] = plasma, other: ocular instillation (eye drop), 0.8 mg/kg/day, Mean, BQL set to 0, read-out: Compound 18 Plasma Conc.
# [7] = plasma, other: ocular instillation (eye drop), 0.8 mg/kg/day, individual animals, read-out: Compound 18 Plasma Conc.
# [8] = plasma, other: ocular instillation, 0.8 mg/kg/day, Mean, BQL set to 0, read-out: Compound 18 Plasma Conc.
# [9] = retina, other: ocular instillation (eye drop), 0.798 mg/kg/day, Mean, read-out: Final Compound 18 Retina Conc.
# [10] = sclera/choroid, other: ocular instillation (eye drop), 0.798 mg/kg/day, Mean, read-out: Final Compound 18 Sclera/Choroid Conc.
# [11] = 0.8 mg/kg/day, aqueous humor, Day 7, from mean concentrations
# [12] = 0.8 mg/kg/day, cornea, Day 7, from mean concentrations
# [13] = 0.8 mg/kg/day, iris/ciliary body, Day 7, from mean concentrations
# [14] = 0.8 mg/kg/day, lens, Day 7, from mean concentrations
# [15] = 0.8 mg/kg/day, optic nerve, Day 7, from mean concentrations
# [16] = 0.8 mg/kg/day, plasma, Day 7, from mean concentrations
# [17] = 0.8 mg/kg/day, retina, Day 7, from mean concentrations
# [18] = 0.8 mg/kg/day, sclera/choroid, Day 7, from mean concentrations
# [19] = 0.8 mg/kg/day, trabecular meshwork, Day 7, from mean concentrations
# [20] = 0.8 mg/kg/day, vitreous humor, Day 7, from mean concentrations
# [21] = trabecular meshwork, other: ocular instillation (eye drop), 0.798 mg/kg/day, Mean, read-out: Final Compound 18 Trabecular Meshwork Conc.
# [22] = vitreous humor, other: ocular instillation (eye drop), 0.8 mg/kg/day, Mean, BQL set to 0, read-out: Compound 18 Vitreous Humor Conc.
# [23] = vitreous humor, other: ocular instillation (eye drop), 0.8 mg/kg/day, individual animals, read-out: Compound 18 Vitreous Humor Conc.
compound,measurement,setting,value
"CCCc1nn(C)c2c(=O)[nH]c(-c3cc(S(=O)(=O)N4CC(CCCO[N+](=O)[O-])C4)ccc3OCC)nc12 [Compound 18, 3-(1-((4-ethoxy-3-(1-methyl-7-oxo-3-propyl-6,7-dihydro-1H-pyrazolo[4,3-d]pyrimidin-5-yl)phenyl)sulfonyl)azetidin-3-yl)propyl nitrate]",concentration at 2 h,[1],5.56 ng/g
same,concentration at 4 h,[1],4.87 ng/g
same,concentration at 8 h,[1],0.967 ng/g
same,concentration at 0.5 h,[2],1.27 ng/mL
same,concentration at 4 h,[2],0.0767 ng/mL
same,concentration at 8 h,"lens, other: ocular instillation (eye drop), 0.798 mg/kg/day, Mean, read-out: Final Compound 18 Lens Conc.",0 ng/g
same,concentration at 1 h,[3],0 ng/g
same,concentration at 1 h,[4],0 ng/g
same,concentration at 0.5 h,[3],2.12 ng/g
same,concentration at 2 h,[3],0 ng/g
same,concentration at 2 h,[4],0 ng/g
same,concentration at 4 h,[3],0.128 ng/g
same,concentration at 8 h,[4],0 ng/g
same,concentration at 1 h,"optic nerve homogenate, other: ocular instillation (eye drop), 0.798 mg/kg/day, individual animals, homogenate dilution factor 20, read-out: Compound 18 Optic Nerve Homogenate Conc.",11.8 ng/mL
same,concentration at 1 h,[5],231 ng/g
same,concentration at 1 h,"optic nerve, other: ocular instillation (eye drop), 0.798 mg/kg/day, individual animals, read-out: Final Compound 18 Optic Nerve Conc.",236 ng/g
same,concentration at 0.5 h,[5],110 ng/g
same,concentration at 2 h,[5],378 ng/g
same,concentration at 4 h,[5],128 ng/g
same,concentration at 8 h,[5],61.6 ng/g
same,concentration at 2 h,[6],0.0397 ng/mL
same,concentration at 2 h,[7],0.119 ng/mL
same,concentration at 8 h,[6],0.0172 ng/mL
same,concentration at 8 h,[7],0.0517 ng/mL
same,concentration at 1 h,[8],0.0407 ng/mL
same,concentration at 1 h,"plasma, other: ocular instillation, 0.8 mg/kg/day, individual animals, read-out: Compound 18 Plasma Conc.",0.0641 ng/mL
same,concentration at 0.5 h,[8],0.261 ng/mL
same,concentration at 0.5 h,"retina homogenate, other: ocular instillation (eye drop), 0.798 mg/kg/day, individual animals, homogenate dilution factor 20, read-out: Compound 18 Retina Homogenate Conc.",0.798 ng/mL
same,concentration at 1 h,[9],18.1 ng/g
same,concentration at 0.5 h,[9],22 ng/g
same,concentration at 0.5 h,"retina, other: ocular instillation (eye drop), 0.798 mg/kg/day, individual animals, BQL set to 0, read-out: Final Compound 18 Retina Conc.",16 ng/g
same,concentration at 2 h,[9],34.8 ng/g
same,concentration at 4 h,[9],27.3 ng/g
same,concentration at 8 h,[9],7.17 ng/g
same,concentration at 1 h,"sclera/choroid homogenate, other: ocular instillation (eye drop), 0.798 mg/kg/day, individual animals, homogenate dilution factor 8, read-out: Compound 18 Sclera/Choroid Homogenate Conc.",3.89 ng/mL
same,concentration at 1 h,[10],45.3 ng/g
same,concentration at 1 h,"sclera/choroid, other: ocular instillation (eye drop), 0.798 mg/kg/day, individual animals, read-out: Final Compound 18 Sclera/Choroid Conc.",31.1 ng/g
same,concentration at 0.5 h,[10],107 ng/g
same,concentration at 2 h,[10],246 ng/g
same,concentration at 4 h,[10],241 ng/g
same,concentration at 8 h,[10],26.8 ng/g
same,Cmax,[11],0.063 ng/mL
same,Tmax,[11],1 h
same,AUC(0-t),[11],0.0158 ng·h/mL
same,Cmax,[12],181 ng/g
same,Tmax,[12],1 h
same,half-life,[12],79.8 min
same,Cmax,[13],107 ng/g
same,Tmax,[13],1 h
same,half-life,[13],135 min
same,Cmax,[14],2.12 ng/g
same,Tmax,[14],0.5 h
same,half-life,[14],51.9 min
same,Cmax,[15],378 ng/g
same,Tmax,[15],2 h
same,half-life,[15],146 min
same,Cmax,[16],0.261 ng/mL
same,Tmax,[16],0.5 h
same,AUC(0-t),[16],0.255 ng·h/mL
same,Cmax,[17],34.8 ng/g
same,Tmax,[17],2 h
same,half-life,[17],152 min
same,Cmax,[18],246 ng/g
same,Tmax,[18],2 h
same,half-life,[18],106 min
same,Cmax,[19],7.67 ng/g
same,Tmax,[19],1 h
same,half-life,[19],158 min
same,Cmax,[20],0.0257 ng/mL
same,Tmax,[20],0.5 h
same,AUC(0-t),[20],0.0242 ng·h/mL
same,Cmax,"Cornea, Day 7, Compound 18 0.8 mg/kg ocular instillation once daily, Groups 1 and 3",181 ng/g
same,concentration at 1 h,[21],7.67 ng/g
same,concentration at 0.5 h,[21],7.01 ng/g
same,concentration at 2 h,[21],11.8 ng/g
same,concentration at 4 h,[21],5.52 ng/g
same,concentration at 8 h,"trabecular meshwork, other: ocular instillation, 0.8 mg/kg/day, Mean, read-out: Final Compound 18 Trabecular Meshwork Conc.",1.93 ng/g
same,concentration at 0.5 h,[22],0.0257 ng/mL
same,concentration at 0.5 h,[23],0.0771 ng/mL
same,concentration at 2 h,[22],0.0228 ng/mL
same,concentration at 2 h,[23],0.0683 ng/mL
same,AUC0-8,"optic nerve, Day 7, from mean concentrations",1302 ng·h/g
same,AUC0-8,"retina, Day 7, from mean concentrations",173 ng·h/g
same,AUC0-8,"sclera/choroid, Day 7, from mean concentrations",1234 ng·h/g
same,AUC0-8,"trabecular meshwork, Day 7, from mean concentrations",32.4 ng·h/g
